Reference: patent US8901118B2, “Compounds and methods for kinase modulation, and indications therefor” (Plexxikon Inc., priority 2010, dated 2014)

How the values were obtained:
[1] = Relative solubility by turbidity in aqueous buffers (pH 1.5, 4.5, 6.8, 7.4); type: physicochemical; settings: for turbidity threshold (L, M, H) 1.4: pH 1.5 (SGF); for turbidity threshold (L, M, H) 4.5: pH 4.5 (SIF); for turbidity threshold (L, M, H) 6.8: pH 6.8 (SIF); for turbidity threshold (L, M, H) 7.4: pH 7.4 (HEPES)
Method in brief: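 Twofold DMSO dilutions of a 25 mM stock were spiked into SGF (0.5M NaCl, pH 1.5), SIF (0.05M NaH2PO4, pH 4.5 and 6.8) or HEPES buffer (10 mM HEPES, 150 mM NaCl, pH 7.4). Absorbance was read at 490, 535 and 650 nm. The endpoint is the concentration crossing O.D. 0.01, averaged across wavelengths.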

CYP1A2 = biological target: T1, CYP1A2 (Homo sapiens, UniProt P05177); experiment: CYP1A2 inhibition (fluorescent substrate CEC); type: in vitro ADME; settings: read-out: Cyp IC50 1A2
T1 sequence (P05177 1-516): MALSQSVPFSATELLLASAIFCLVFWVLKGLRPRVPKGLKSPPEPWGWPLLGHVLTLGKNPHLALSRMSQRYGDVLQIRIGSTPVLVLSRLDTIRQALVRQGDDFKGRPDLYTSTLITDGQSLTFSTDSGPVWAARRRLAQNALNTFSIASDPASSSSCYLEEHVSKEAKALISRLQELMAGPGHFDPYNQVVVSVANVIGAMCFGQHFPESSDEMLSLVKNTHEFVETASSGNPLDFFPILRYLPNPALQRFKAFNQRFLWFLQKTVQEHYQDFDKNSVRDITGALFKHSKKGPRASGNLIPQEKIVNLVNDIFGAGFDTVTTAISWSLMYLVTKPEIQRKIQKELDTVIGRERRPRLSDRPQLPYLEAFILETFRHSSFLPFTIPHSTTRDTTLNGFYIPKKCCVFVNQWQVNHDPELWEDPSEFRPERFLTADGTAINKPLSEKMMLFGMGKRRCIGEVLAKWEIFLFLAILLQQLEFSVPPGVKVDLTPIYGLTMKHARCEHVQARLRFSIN
Method in brief: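 Test compounds, 10-point 1:1 serial dilutions in NADPH-regenerating cofactor mix, were preincubated 10 min at 37° C before recombinant enzyme and fluorogenic substrate reactions at 37° C (CYP1A2 15 min; CYP2C9 45 min; CYP2C19, 2D6 30 min). Product fluorescence was read at 409 ex with 460 em (1A2, 2C19) or 530 em (2C9, 2D6), and IC50 fitted from signal versus concentration.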

Fms kinase = Fms kinase (Homo sapiens, UniProt P07333); experiment: Fms kinase biochemical activity assay (AlphaScreen, biotin-(E4Y)10 phosphorylation); settings: 100 μM ATP; read-out: Biochemical Inhibition IC50 Fms
Fms kinase, sequence (P07333 20-972): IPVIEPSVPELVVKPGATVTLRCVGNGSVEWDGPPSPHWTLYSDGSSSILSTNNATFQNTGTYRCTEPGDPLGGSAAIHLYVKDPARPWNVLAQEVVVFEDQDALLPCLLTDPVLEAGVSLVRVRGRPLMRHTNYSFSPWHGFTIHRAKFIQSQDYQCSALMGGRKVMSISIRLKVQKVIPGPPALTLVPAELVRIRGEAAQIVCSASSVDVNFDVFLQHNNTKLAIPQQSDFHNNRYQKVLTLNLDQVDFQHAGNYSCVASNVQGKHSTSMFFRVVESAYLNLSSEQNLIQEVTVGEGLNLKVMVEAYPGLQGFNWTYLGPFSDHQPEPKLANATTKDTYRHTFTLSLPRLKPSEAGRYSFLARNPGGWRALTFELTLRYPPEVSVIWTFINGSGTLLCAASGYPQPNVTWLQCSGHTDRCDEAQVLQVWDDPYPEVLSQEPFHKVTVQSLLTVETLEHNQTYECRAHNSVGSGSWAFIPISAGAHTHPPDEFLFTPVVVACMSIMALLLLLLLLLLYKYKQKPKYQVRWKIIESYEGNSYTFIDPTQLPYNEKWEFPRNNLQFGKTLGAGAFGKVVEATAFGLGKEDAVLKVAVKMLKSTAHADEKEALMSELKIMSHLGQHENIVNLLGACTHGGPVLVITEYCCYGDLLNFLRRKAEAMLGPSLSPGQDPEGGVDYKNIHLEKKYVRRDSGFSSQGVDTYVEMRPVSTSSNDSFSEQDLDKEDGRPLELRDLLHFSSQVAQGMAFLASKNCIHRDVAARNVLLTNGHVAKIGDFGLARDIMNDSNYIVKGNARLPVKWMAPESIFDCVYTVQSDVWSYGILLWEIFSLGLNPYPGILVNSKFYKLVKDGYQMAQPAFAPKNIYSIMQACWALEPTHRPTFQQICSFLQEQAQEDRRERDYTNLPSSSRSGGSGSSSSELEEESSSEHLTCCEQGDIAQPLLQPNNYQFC
Method in brief: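 Fms kinase (1 ng/well) phosphorylating 30 nM biotin-(E4Y)10 with 100 μM ATP in 25 mM Hepes pH 7.5, MgCl2/MnCl2, 5% DMSO, 20 min at 30 °C. Phosphotyrosine detected by AlphaScreen streptavidin donor and PY20 acceptor beads; IC50 from signal versus compound concentration.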

SMILES	turbidity threshold (L, M, H) 1.4 [1]	turbidity threshold (L, M, H) 4.5 [1]	turbidity threshold (L, M, H) 6.8 [1]	turbidity threshold (L, M, H) 7.4 [1]	IC50 (CYP1A2) [µM]	IC50 (Fms kinase) [nM]
CNc1ncnc2[nH]cc(C(=O)c3ccc(Nc4ccc(C5CC5)nc4)nc3F)c12 [Compound P-4094, [6-[(6-cyclopropyl-3-pyridyl)amino]-2-fluoro-3-pyridyl]-[4-(methylamino)-7H-pyrrolo[2,3-d]pyrimidin-5-yl]methanone]	H (high solubility if the threshold concentration is >250 μm)	L (low solubility if the threshold concentration is <31.3 μM)	M (moderate solubility if the threshold concentration is 31.3 μM to 250 μM)	M (moderate solubility if the threshold concentration is 31.3 μM to 250 μM)	< 5	< 10
CCc1ccc(Nc2ccc(C(=O)c3c[nH]c4ncnc(NC5CCC5)c34)c(F)n2)cn1 [Compound P-4095, [4-(cyclobutylamino)-7H-pyrrolo[2,3-d]pyrimidin-5-yl]-[6-[(6-ethyl-3-pyridyl)amino]-2-fluoro-3-pyridyl]methanone]	M (moderate solubility if the threshold concentration is 31.3 μM to 250 μM)	M (moderate solubility if the threshold concentration is 31.3 μM to 250 μM)	M (moderate solubility if the threshold concentration is 31.3 μM to 250 μM)	M (moderate solubility if the threshold concentration is 31.3 μM to 250 μM)	> 10	< 10
CCc1ccc(Nc2ccc(C(=O)c3c[nH]c4ncnc(NC5CCC(F)(F)CC5)c34)c(F)n2)cn1 [Compound P-4096, [4-[(4,4-difluorocyclohexyl)amino]-7H-pyrrolo[2,3-d]pyrimidin-5-yl]-[6-[(6-ethyl-3-pyridyl)amino]-2-fluoro-3-pyridyl]methanone]	H (high solubility if the threshold concentration is >250 μm)	L (low solubility if the threshold concentration is <31.3 μM)	L (low solubility if the threshold concentration is <31.3 μM)	L (low solubility if the threshold concentration is <31.3 μM)	< 5	< 100
CCc1ccc(Nc2ccc(C(=O)c3c[nH]c4ncnc(N[C@@H](C)c5ccc(F)cc5)c34)c(F)n2)cn1 [Compound P-4097, [6-[(6-ethyl-3-pyridyl)amino]-2-fluoro-3-pyridyl]-[4-[[(1S)-1-(4-fluorophenyl)ethyl]amino]-7H-pyrrolo[2,3-d]pyrimidin-5-yl]methanone]	M (moderate solubility if the threshold concentration is 31.3 μM to 250 μM)	L (low solubility if the threshold concentration is <31.3 μM)	L (low solubility if the threshold concentration is <31.3 μM)	L (low solubility if the threshold concentration is <31.3 μM)	< 5	< 1000
CCc1ccc(Nc2ccc(C(=O)c3c[nH]c4ncnc(NCCCOC)c34)c(F)n2)cn1 [Compound P-4098, [6-[(6-ethyl-3-pyridyl)amino]-2-fluoro-3-pyridyl]-[4-(3-methoxypropylamino)-7H-pyrrolo[2,3-d]pyrimidin-5-yl]methanone]	H (high solubility if the threshold concentration is >250 μm)	L (low solubility if the threshold concentration is <31.3 μM)	M (moderate solubility if the threshold concentration is 31.3 μM to 250 μM)	M (moderate solubility if the threshold concentration is 31.3 μM to 250 μM)	< 5	< 10
